Data from patent US20250011726A1, “METHODS AND COMPOSITIONS FOR MAINTAINING AGGREGATE STABILITY AND PLURIPOTENCY OF STEM CELLS” (Trailhead Biosystems Inc., priority 2023, published 2025).

Key:
hiPSCs = test: Pluripotency marker expression by flow cytometry and qPCR; assay type: cell-based, human; conditions: for factor contribution (FC), NANOG optimization: MODDE optimizer for NANOG
Procedure: 3 ml sample was taken from each bioreactor on day 4 of the culture for qPCR testing. RNA samples were dissolved in Trizol and extracted. Quantification of RNA was performed on epoch reader. A high-Capacity cDNA RT Kit was used for reverse transcription of RNA samples of each bioreactor. 3 replicate samples of cDNA were obtained from 3 replicate samples of each bioreactor. Data collection was performed using QuantStudio for qPCR testing. The runs were performed per the manufacturer's protocol and recommendations. The primers used were NANOG, SOX2, POU5F1 and GAPDH. The data set obtained was then exported to Excel and normalized against corresponding housekeeping gene GAPDH. Final expression levels were expressed as 1/(2^Crt)×1000 and inputted into the MODDE software. A 3 ml sample was taken from each bioreactor on day 4 of the culture for flow testing. The aggregates were dissociated with Accutase for 10 minutes into single cells. Cells were resuspended in PBS and divided into samples for intracellular staining and cells for extracellular staining. Sample for intracellular staining were fixed with a live/dead stain FVS 780, then permeabilized and stained for OCT4 and SOX2.
Pluripotency data was assessed at the end of the experiment through Immunohistochemistry (IHC), flow cytometry and qPCR testing. The experiment was divided into two batches of experiments to be run at different times. Three replicated center point experiments with all five additives at mid-concentrations were used and split between the batches for normalization and model evaluation purposes. The optimization criteria were based on multiple attributes related to aggregate stability, cell growth and pluripotency. Mathematical models were generated and tuned for maximal predictive power and fit. The model responses for each parameter were statistically evaluated for model reproducibility, model validity, fit (R2) and prediction precision (Q2). […] The model had model validity above 0.25 indicating the absence of problems related to outliers and transformation issues.
Attaining maximal growth conditions of iPSC is not meaningful unless the iPSC state characteristics is also maintained. […] At the end of the experiment, using flow cytometry we tested for SSEA4, OCT4, SOX2 and TRA-1-60 while a complimentary q-PCR assessment was conducted for NANOG, OCT4 and SOX2. The results of these experiments were used to model the effect of the additives on pluripotency. […] This is because that until proven that individual factors are not in regulatory conflict (i.e., SOX2, NANOG, or OCT4 being subject to differential control), single-response factor optimization is prudent. As we found, these factors are indeed subject to differential control.

hiPSC aggregates = test: Aggregate size, deviation and Aggregate % Error in bioreactor; assay type: cell-based, human; conditions: DS and pluronic F68 at low concentrations; heparin sodium salt and PEG present; FIG. 4B
Procedure: Samples from the bioreactor were taken after slightly mixing using a pipette to avoid sampling bias and gradient formation after settling. 3 ml total was sampled daily for 3 samples of 1 ml for cell count. The cells were first dissociated using Accutase and incubated for 10minutes. Cells were then quenched with E8 then centrifuged at 400×g for 6 minutes. The pellet was resuspended in the same volume of PBS. Samples were then analyzed for total cell count using Attune flow. 3 replicate counts were collected for each bioreactor for each day of culture. 2 samples were collected for aggregate imaging of 500 ul and put on a 24 well plate. EVOS 7000 was used for bright field images of the aggregates. […] A minimum of 30 aggregates were measured for each bioreactor every day of the culture. […] The cell counts were also analyzed for doubling time using GraphPad Prism. […] Using the aggregate size generated from day 1 from all bioreactors and their corresponding cell growth rate, a predicted aggregate size was calculated for day 3 and compared to the actual size measured. The predicted aggregate size was calculated from theoretical aggregate volume. […]
From the cell number, the predicted aggregate volume (V3P) was calculated again from the first equation. […] This is calculated by subtracting the predicted from the actual average size measured and divided by the actual value: […]

[1] = coefficients of flow and qPCR markers, FIG. 3B

Row | Substance | factor contribution (FC), NANOG optimization (hiPSCs) | contribution factor, optimizer for target aggregate % error of 0 (hiPSC aggregates) | impact on NANOG (coefficient) (hiPSCs; [1]) | impact on OCT4 (coefficient) (hiPSCs; [1])
1 | Heparin sodium salt [reference compound] | 21.12 | 21.71 | – | –
2 | dextran sulfate [DS] | 48.04 | 28.05 | positive | negative
